The experiment has as its target GCN2 (Homo sapiens, UniProt Q9P2K8). Description: GCN2 enzymatic endpoint assay: phosphorylation of GFP-eIF2α measured by TR-FRET (Lanthascreen). Type of experiment: biochemical. As for the experimental part: The Enzymatic assay was run as an endpoint assay to quantify the activity of the serine/threonine GCN2 kinase by way of measuring phosphorylation of its natural substrate, eiF2α.
The enzymatic reaction was initiated by incubating with 2 μM ATP and 80 nM of GFP labeled eiF2a substrate at room temperature and then stopped after 90 minutes with EDTA. The amount of phosphorylated eIF2α is determined by TR-FRET (Lanthascreen). A terbium labeled antibody associates with the phosphorylated substrate resulting in an increased TR-FRET value. Activity was calculated as the ratio of the acceptor (fluorescein) signal at 520 nm wavelength to the donor (terbium) signal 495 nm. The amount of antibody that is bound to the tracer is directly proportional to the amount of phosphorylated substrate present, and in this manner, kinase activity can be detected and measured by an increase in the TR-FRET value.
Compound addition by D300
5 μL enzyme solution in assay buffer
5 μL substrate/ATP mixture in assay buffer
5 μL stop/detection mix in antibody dilution buffer

The mark [1] stands for this setting: GCN2 biochemical IC50, 4 nM GCN2, 2 μM ATP, 80 nM GFP-eIF2α, 90 min RT, read-out: GCN2 activity.
Where [2] appears, read: tested as described in Example 77, compound and/or hydrochloride, dihydrochloride or trifluoroacetic acid salt, read-out: IC 50 Activity.

Read-outs that look alike come from different tables or passages of the source.

GCN2, sequence (Q9P2K8 whole entry): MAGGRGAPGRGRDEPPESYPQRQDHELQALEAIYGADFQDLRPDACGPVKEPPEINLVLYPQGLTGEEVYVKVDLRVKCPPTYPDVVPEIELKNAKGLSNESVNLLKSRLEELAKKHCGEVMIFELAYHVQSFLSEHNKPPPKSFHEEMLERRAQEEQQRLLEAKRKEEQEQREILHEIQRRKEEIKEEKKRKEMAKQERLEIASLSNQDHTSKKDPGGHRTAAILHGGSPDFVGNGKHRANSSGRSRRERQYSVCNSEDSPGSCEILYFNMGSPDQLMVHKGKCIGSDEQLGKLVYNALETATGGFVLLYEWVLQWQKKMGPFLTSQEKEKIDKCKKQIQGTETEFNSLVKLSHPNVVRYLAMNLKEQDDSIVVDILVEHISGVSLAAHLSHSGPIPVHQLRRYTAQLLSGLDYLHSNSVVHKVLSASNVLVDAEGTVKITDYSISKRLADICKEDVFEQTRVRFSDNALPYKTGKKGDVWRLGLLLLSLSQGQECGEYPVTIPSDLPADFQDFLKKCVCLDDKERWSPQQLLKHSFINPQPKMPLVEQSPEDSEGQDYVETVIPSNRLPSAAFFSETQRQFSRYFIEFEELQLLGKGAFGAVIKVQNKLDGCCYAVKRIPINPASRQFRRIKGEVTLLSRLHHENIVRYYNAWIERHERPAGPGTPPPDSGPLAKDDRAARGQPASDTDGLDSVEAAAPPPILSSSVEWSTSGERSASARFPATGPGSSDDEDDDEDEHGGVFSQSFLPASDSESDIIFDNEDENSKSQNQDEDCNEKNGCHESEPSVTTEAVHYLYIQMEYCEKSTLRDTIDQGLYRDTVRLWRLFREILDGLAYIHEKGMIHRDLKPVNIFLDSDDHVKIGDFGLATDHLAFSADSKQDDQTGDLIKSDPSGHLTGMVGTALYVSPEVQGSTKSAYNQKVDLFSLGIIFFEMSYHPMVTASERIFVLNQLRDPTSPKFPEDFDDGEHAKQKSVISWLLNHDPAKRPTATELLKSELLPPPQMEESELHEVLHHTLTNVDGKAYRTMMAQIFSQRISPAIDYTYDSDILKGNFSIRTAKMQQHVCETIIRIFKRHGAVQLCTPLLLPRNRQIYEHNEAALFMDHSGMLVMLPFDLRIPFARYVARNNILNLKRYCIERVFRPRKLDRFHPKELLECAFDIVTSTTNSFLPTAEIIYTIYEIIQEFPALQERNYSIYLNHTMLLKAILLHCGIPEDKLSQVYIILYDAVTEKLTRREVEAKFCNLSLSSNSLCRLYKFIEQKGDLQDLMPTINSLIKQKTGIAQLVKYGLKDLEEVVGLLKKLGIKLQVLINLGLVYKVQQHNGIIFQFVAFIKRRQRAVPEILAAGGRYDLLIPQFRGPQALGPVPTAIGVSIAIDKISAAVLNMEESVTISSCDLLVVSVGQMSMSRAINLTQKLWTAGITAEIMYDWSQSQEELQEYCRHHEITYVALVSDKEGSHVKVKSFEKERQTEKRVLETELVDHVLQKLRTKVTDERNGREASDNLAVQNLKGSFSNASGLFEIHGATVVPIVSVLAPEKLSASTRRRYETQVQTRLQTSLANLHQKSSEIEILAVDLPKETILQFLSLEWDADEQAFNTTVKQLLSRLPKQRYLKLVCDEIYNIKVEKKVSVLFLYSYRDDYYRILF

As to `Brc1nn(-c2ccc3ncccc3c2)c2nc(N[C@@H]3CCC(N4CCOCC4)C3)ncc12` (mixture of isomers) [Example 7, 3-bromo-N-(3-morpholinocyclopentyl)-1-(quinolin-6-yl)-1H-pyrazolo[3,4-d]pyrimidin-6-amine], the IC50 under setting [1] was in the range of 0.025 to 0.2 µM.

On to `CS(=O)(=O)N[C@@H]1CCC(Nc2ncc3c(Br)nn(-c4ccc5ncccc5c4)c3n2)C1` (mixture of isomers) [Example 15, N-(trans-3-((3-bromo-1-(quinolin-6-yl)-1H-pyrazolo[3,4-d]pyrimidin-6-yl)amino)cyclopentyl)methanesulfonamide], for which the IC50 under setting [1] was in the range of 0.2 to 0.5 µM.

With `Cn1ccnc1[C@@H]1CC[C@@H](Nc2ncc3c(Br)nn(-c4ccc5ncccc5c4)c3n2)C1` (relative stereo) [3-bromo-N-(trans-3-(1-methyl-1H-imidazol-2-yl)cyclopentyl)-1-(quinolin-6-yl)-1H-pyrazolo[3,4-d]pyrimidin-6-amine], under setting [2], the IC50 was in the range of 0.025 to 0.2 µM.

With `CNC(=O)[C@]1(C)CC[C@@H](Nc2ncc3c(Br)nn(-c4ccc5nccnc5c4)c3n2)C1` (single isomer, unassigned) [Example 11], the IC50 under setting [1] lay in the range of 0.025 to 0.2 µM.

As to `CNS(=O)(=O)[C@@H]1CC[C@@H](Nc2ncc3c(Br)nn(-c4ccc5ncccc5c4)c3n2)C1` (single isomer, unassigned) [Example 16], the IC50 under setting [1] lay within 0.025 to 0.2 µM.

For `CNC(=O)[C@]1(C)CC[C@@H](Nc2ncc3c(Br)nn(-c4ccc5ncccc5c4)c3n2)C1` (single isomer, unassigned) [Example 18], under setting [1], the IC50 was 0.025 to 0.2 µM.

`CNC(=O)[C@]1(CC#N)CC[C@@H](Nc2ncc3c(Br)nn(-c4cc(F)c5ncccc5c4)c3n2)C1` (single isomer, unassigned) [Example 19]: the IC50 under setting [1] is 0.025 to 0.2 µM.

On to `CNC(=O)[C@]1(C)CC[C@@H](Nc2ncc3c(Br)nn(-c4cc(C#N)c5ncccc5c4)c3n2)C1` (single isomer, unassigned) [Example 23], for which the IC50 under setting [1] is under 0.025 µM.

Regarding `O=C(CO)N1CCN(C(=O)[C@@H]2CC[C@@H](Nc3ncc4c(Br)nn(-c5cc(F)c6ncccc6c5)c4n3)C2)CC1` [1-(4-((1R,3R)-3-((3-bromo-1-(8-fluoroquinolin-6-yl)-1H-pyrazolo[3,4-d]pyrimidin-6-yl)amino)cyclopentane-1-carbonyl)piperazin-1-yl)-2-hydroxyethan-1-one], the IC50 under setting [2] was in the range of 0.025 to 0.2 µM.

Consider `O=C(CO)N1CCN(C(=O)[C@@H]2CC[C@@H](Nc3ncc4c(Br)nn(-c5ccc6ncccc6c5)c4n3)C2)CC1` [1-(4-((1R,3R)-3-((3-bromo-1-(quinolin-6-yl)-1H-pyrazolo[3,4-d]pyrimidin-6-yl)amino)cyclopentane-1-carbonyl)piperazin-1-yl)-2-hydroxyethan-1-one], for which, under setting [2], the IC50 is 0.025 to 0.2 µM.

Turning to `CC(O)C(=O)N1CCN(C(=O)[C@@H]2CC[C@@H](Nc3ncc4c(Br)nn(-c5ccc6ncccc6c5)c4n3)C2)CC1` (stereo partly drawn) [1-(4-((1R,3R)-3-((3-bromo-1-(quinolin-6-yl)-1H-pyrazolo[3,4-d]pyrimidin-6-yl)amino)cyclopentane-1-carbonyl)piperazin-1-yl)-2-hydroxypropan-1-one], the IC50 under setting [2] lay within 0.025 to 0.2 µM.

Consider `CCN1CN(C(=O)[C@@H]2CC[C@@H](Nc3ncc4c(Br)nn(-c5cc(F)c6ncccc6c5)c4n3)C2)CC1=O` [1-((1R,3R)-3-((3-bromo-1-(8-fluoroquinolin-6-yl)-1H-pyrazolo[3,4-d]pyrimidin-6-yl)amino)cyclopentane-1-carbonyl)-3-ethyl-imidazolidin-4-one], for which, under setting [2], the IC50 lay within 0.025 to 0.2 µM.

On to `O=C([C@@H]1CC[C@@H](Nc2ncc3c(Br)nn(-c4cc(F)c5ncccc5c4)c3n2)C1)N1CCC(O)(C(=O)O)C1` (stereo partly drawn) [1-((1R,3R)-3-((3-bromo-1-(8-fluoroquinolin-6-yl)-1H-pyrazolo[3,4-d]pyrimidin-6-yl)amino)cyclopentane-1-carbonyl)-3-hydroxy-pyrrolidine-3-carboxylic acid], for which the IC50 under setting [2] lay in the range of 0.5 to 1 µM.

In the case of `CC1(C(=O)O)CN(C(=O)[C@@H]2CC[C@@H](Nc3ncc4c(Br)nn(-c5cc(F)c6ncccc6c5)c4n3)C2)C1` [1-((1R,3R)-3-((3-bromo-1-(8-fluoroquinolin-6-yl)-1H-pyrazolo[3,4-d]pyrimidin-6-yl)amino)cyclopentane-1-carbonyl)-3-methylazetidine-3-carboxylic acid], the IC50 under setting [2] was 0.025 to 0.2 µM.

With `N#CC1CN(C(=O)[C@@H]2CC[C@@H](Nc3ncc4c(Br)cn(-c5cc(F)c6ncccc6c5)c4n3)C2)C1` [1-((1R,3R)-3-((5-bromo-7-(8-fluoroquinolin-6-yl)-7H-pyrrolo[2,3-d]pyrimidin-2-yl)amino)cyclopentane-1-carbonyl)azetidine-3-carbonitrile], the IC50 under setting [2] is under 0.025 µM.

`CCC(=O)N1CCN(C(=O)[C@@H]2CC[C@@H](Nc3ncc4c(Br)nn(-c5cc(F)c6ncccc6c5)c4n3)C2)C1` [1-[3-[(1R,3R)-3-[[3-bromo-1-(8-fluoro-6-quinolyl)pyrazolo[3,4-d]pyrimidin-6-yl]amino]cyclopentanecarbonyl]imidazolidin-1-yl]propan-1-one]: under setting [2], the IC50 is under 0.025 µM.

Consider `CC(=O)N1CCC(Nc2ncc3c(Br)nn(-c4cc(F)c5ncccc5c4)c3n2)CC1` [1-[4-[[3-bromo-1-(8-fluoro-6-quinolyl)pyrazolo[3,4-d]pyrimidin-6-yl]amino]-1-piperidyl]ethanone], for which the IC50 under setting [2] fell in the range of 0.025 to 0.2 µM.

Take `CS(=O)(=O)C1CC[C@@H](Nc2ncc3c(Br)nn(-c4cc(CCN)c5nccnc5c4)c3n2)C1` (stereo partly drawn) [1-[8-(2-aminoethyl)quinoxalin-6-yl]-3-bromo-N-[(1R)-3-methylsulfonylcyclo-pentyl]pyrazolo[3,4-d]pyrimidin-6-amine]: under setting [2], the IC50 is under 0.025 µM.

As for `CP(C)(=O)[C@@H]1CC[C@@H](Nc2ncc3c(Br)nn(-c4cc(CCN)c5nccnc5c4)c3n2)C1` [1-[8-(2-aminoethyl)quinoxalin-6-yl]-3-bromo-N-[(1R,3R)-3-dimethylphosphorylcyclopentyl] pyrazolo[3,4-d]pyrimidin-6-amine], the IC50 under setting [2] fell in the range of 0.025 to 0.2 µM.

Regarding `C[C@@]1(C(=O)N2CNC(=O)C2)CC[C@@H](Nc2ncc3c(Br)nn(-c4cc(F)c5ncccc5c4)c3n2)C1` [1-[(1R,3R)-3-[[3-bromo-1-(8-fluoro-6-quinolyl)pyrazolo[3,4-d]pyrimidin-6-yl]amino]-1-methyl-cyclopentanecarbonyl] imidazolidin-4-one], the IC50 under setting [2] is under 0.025 µM.

`CN1CN(C(=O)[C@]2(C)CC[C@@H](Nc3ncc4c(Br)nn(-c5cc(F)c6ncccc6c5)c4n3)C2)CC1=O` [1-[(1R,3R)-3-[[3-bromo-1-(8-fluoro-6-quinolyl)pyrazolo[3,4-d]pyrimidin-6-yl]amino]-1-methyl-cyclopentanecarbonyl]-3-methyl-imidazolidin-4-one]: the IC50 under setting [2] was under 0.025 µM.

For the compound `O=C1CN(C(=O)[C@@H]2CC[C@@H](Nc3ncc4c(Br)nn(-c5cc(F)c6ncccc6c5)c4n3)C2)CN1CC1CC1` [1-[(1R,3R)-3-[[3-bromo-1-(8-fluoro-6-quinolyl)pyrazolo[3,4-d]pyrimidin-6-yl]amino]cyclopentanecarbonyl]-3-(cyclopropylmethyl)imidazolidin-4-one], under setting [2], the IC50 is 0.025 to 0.2 µM.

For the compound `N#CC1CN(C(=O)[C@@H]2CC[C@@H](Nc3ncc4c(Br)nn(-c5cc(F)c6ncccc6c5)c4n3)C2)C1` [1-[(1R,3R)-3-[[3-bromo-1-(8-fluoro-6-quinolyl)pyrazolo[3,4-d]pyrimidin-6-yl]amino]cyclopentanecarbonyl]azetidine-3-carbonitrile], the IC50 under setting [2] was under 0.025 µM.

`C[C@]1(C(=O)N2CNC(=O)C2)CC[C@@H](Nc2ncc3c(Br)nn(-c4cc(F)c5ncccc5c4)c3n2)C1` [1-[(1S,3R)-3-[[3-bromo-1-(8-fluoro-6-quinolyl)pyrazolo[3,4-d]pyrimidin-6-yl]amino]-1-methyl-cyclopentanecarbonyl] imidazolidin-4-one]: under setting [2], the IC50 lay within 0.025 to 0.2 µM.

For `CN1CN(C(=O)[C@@]2(C)CC[C@@H](Nc3ncc4c(Br)nn(-c5cc(F)c6ncccc6c5)c4n3)C2)CC1=O` [1-[(1S,3R)-3-[[3-bromo-1-(8-fluoro-6-quinolyl)pyrazolo[3,4-d]pyrimidin-6-yl]amino]-1-methyl-cyclopentanecarbonyl]-3-methyl-imidazolidin-4-one], under setting [2], the IC50 was in the range of 0.025 to 0.2 µM.

In the case of `COCCN1CN(C(=O)C2(C)CC[C@@H](Nc3ncc4c(Br)nn(-c5cc(F)c6ncccc6c5)c4n3)C2)CC1=O` (stereo partly drawn) [1-[(3R)-3-[[3-bromo-1-(8-fluoro-6-quinolyl)pyrazolo[3,4-d]pyrimidin-6-yl]amino]-1-methyl-cyclopentanecarbonyl]-3-(2-methoxyethyl)imidazolidin-4-one], under setting [2], the IC50 is under 0.025 µM.

In the case of `CC1(C(=O)N2CCC(F)(C#N)C2)CC[C@@H](Nc2ncc3c(Br)nn(-c4cc(F)c5ncccc5c4)c3n2)C1` (stereo partly drawn) [1-[(3R)-3-[[3-bromo-1-(8-fluoro-6-quinolyl)pyrazolo[3,4-d]pyrimidin-6-yl]amino]-1-methyl-cyclopentanecarbonyl]-3-fluoro-pyrrolidine-3-carbonitrile], the IC50 under setting [2] fell in the range of 0.025 to 0.2 µM.

Regarding `CN1CN(C(=O)C2(C)CC[C@@H](Nc3ncc4c(Br)nn(-c5cc(F)c6ncccc6c5)c4n3)C2)CC1=O` (stereo partly drawn) [1-[(3R)-3-[[3-bromo-1-(8-fluoro-6-quinolyl)pyrazolo[3,4-d]pyrimidin-6-yl]amino]-1-methyl-cyclopentanecarbonyl]-3-methyl-imidazolidin-4-one], the IC50 under setting [2] was under 0.025 µM.

Take `CC1(C(=O)N2CNC(=O)C2)CC[C@@H](Nc2ncc3c(Br)nn(-c4cc(F)c5ncccc5c4)c3n2)C1` (stereo partly drawn) [1-[(3R)-3-[[3-bromo-1-(8-fluoro-6-quinolyl)pyrazolo[3,4-d]pyrimidin-6-yl]amino]-1-methyl-cyclopentanecarbonyl]imidazolidin-4-one]: the IC50 under setting [2] was under 0.025 µM.

The values are drawn from patent US11046699B2, “Pyrazolo-pyrimidin-amino-cycloalkyl compounds and their therapeutic uses” (RAPT THERAPEUTICS, INC., priority 2018, dated 2021).
